Test results: patent US11529335B2, “Compositions and methods for treating cancer” (UNIVERSITY OF IOWA RESEARCH FOUNDATION, priority 2020, dated 2022)

Experiments:
[1] = system: GSH in A375 xenograft tumor samples; assay: GSH concentrations in tumor samples from treated mice; assay type: in vivo, mice (Athymic nu/nu); settings: mice treated with BSO, 15 mM in drinking water
Protocol: (§1) 2-Mercaptoethanol is a reducing agent that leads to reduction of disulphide bonds to produce thiols. […] The effect of eliminating GSH in vivo was tested by treating mice (Athymic nu/nu) bearing A375 xenografts with rodent diet (AIN-76A) containing PLX4720 ([…], 416 mg/kg of diet) alone and in combination with BSO (15 mM in drinking water). […] Tumor xenografts in mice treated with the AIN-76 diet mixed with PLX4720 were responsive initially, but approximately 80% of these tumors acquired resistance to BRAFi treatment alone within 140 days (i.e., 20% complete responses; FIG. 2). On the contrary, the combination of BSO with PLX4720 produced nearly 90% complete and durable tumor responses (FIG. 4). […] Tumor progression was defined as a 50% increase (approximately a two standard deviation increase) in tumor volume from study initiation.
Female athymic nu/nu mice (age six weeks) were purchased from Envigo (previously Harlan Laboratories) and housed in the Animal Care Facility at The University of Iowa (Iowa City, Iowa). All procedures were approved by The University of Iowa Institutional Animal Care and Use Committee. All mice were naïve to treatments at the time of xenograft. For each xenograft, 1-3×10^6 cells (451LuBR and A375) were implanted subcutaneously in a 1:1 suspension of Matrigel (Corning) and PBS (flank) using a 27-gauge needle. […]

[2] = system: A375 xenografts; assay: A375 xenografts in athymic nu/nu mice: tumor growth, response, survival, body weight; assay type: in vivo
Protocol: as §1
Female athymic nu/nu mice (age six weeks) were purchased from Envigo (previously Harlan Laboratories) and housed in the Animal Care Facility at The University of Iowa (Iowa City, Iowa). All procedures were approved by The University of Iowa Institutional Animal Care and Use Committee. All mice were naïve to treatments at the time of xenograft. For each xenograft, 1-3×10^6 cells (451LuBR and A375) were implanted subcutaneously in a 1:1 suspension of Matrigel (Corning) and PBS (flank) using a 27-gauge needle. For all in vivo studies, the mice were randomly assigned to experimental groups post-implant. Animals developed tumors within 7-10 days post-implant. Initiation of treatments was standardized to the time that tumor volume ([(longest length)×(smallest length^2)]/2) reached 80-100 mm^3.
The dose and mode of delivery for PBA was determined by analyzing the pharmacokinetics C-14 labeled PBA in mice (FIG. 5). These drugs were administered alone and in combination depending on the experimental group. The mice were monitored for their state of health every day. Tumor volume and animal weights were measured twice per week. Mice were euthanized when the observed state of health reached the endpoint according to the approved IACUC protocol or when the tumor volume reached 1500 mm^3.
Statistics was conducted using the tumor sizes (mm^3) that were obtained periodically throughout the experiments, resulting in repeated measurements for each mouse. Linear mixed effects regression models were used to estimate and compare treatment group-specific tumor growth curves. Pairwise comparisons were performed to identify treatment group differences in the growth curves. The Kaplan-Meier method was used to estimate the survival curves, and group comparisons were made using the log rank test. Mice who developed ulcerations were censored at day of euthanasia. […]

Row | Structure (SMILES) | GSH concentrations in tumor samples vs controls [1] | tumor growth rate versus untreated controls ([2]; BSO alone, 15 mM in drinking water, A375 xenografts) | complete (and durable) tumor responses ([2]; A375 xenografts, PLX4720 416 mg/kg of diet, alone or with BSO 15 mM in drinking water) [%] | time within which tumor xenografts acquire resistance ([2]; BRAFi treatment alone) [days] | tumors that acquired resistance to BRAFi treatment alone ([2]; within 140 days, PLX4720 416 mg/kg of AIN-76A diet)
1 | CCCCS(=N)(=O)CCC(N)C(=O)O (centres unmarked) [BSO, buthionine sulfoximine] | significantly lower | No significant difference |  |  | 
2 | CCCS(=O)(=O)Nc1ccc(F)c(C(=O)c2c[nH]c3ncc(Cl)cc23)c1F [PLX4720] |  |  | 20 | ≤ 140 | approximately 80%
